# Data as given in patent publication US7183255B2, “Method for stabilizing blood pressure in hemodialysis subjects” (Intradialytic Pharmaceuticals, priority 2003, dated 2007).
# Several values for one entry are separate records, joined by “and”; a condition that tells them apart may be missing. Identical values can stand only once. Entries after “also recorded” stand apart in the source; their conditions may differ.
# Tests used:
# Format in all cases: in vivo, human
# [1] = system: patients with end-stage renal disease; assay: Systolic arterial pressure during AVP infusion in ESRD patients off dialysis (Example 1); conditions: for systolic arterial blood pressure: ESRD, n=12, M ± SD
# Description: (§1) Healthy controls and patients with end-stage renal disease (e.g. defined as creatinine clearance of less than 10 ml/min) were studied. The studies were conducted on regularly scheduled hemodialysis days. The duration of hemodialysis remained the same as that prescribed prior to the study period. AVP or placebo (normal saline) was administered at a constant rate of 0.15, 0.3 or o.6 mU/kg/min through a venous line (controls) or through the venous limb of the dialysis circuit (hemodialysis patients). The patient's hemodialysis prescription remained unchanged except for the administration of AVP or placebo. Intradialytic hypotension was treated in the customary manner with the infusion of isotonic and hypertonic fluids.
# (§2) Serum AVP levels were determined by a radioimmunoassay technique. Blood pressure was measured with a cuff-type sphygmomanometer at 20 minute intervals.
# (§3) We discovered that patients with ERSD are hypersensitive to vasopressin's pressor action.
# (§4) The administration of exogenous AVP to patients with ESDR led to the discovery that these patients are hyper-responsive to the vascular effect of this hormone.
# [2] = system: hypertensive patients with ESRD on chronic hemodialysis; assay: Randomized double-blinded trial of vasopressin vs placebo during hemodialysis with 0.5 kg increased target weight reduction (Example 3); conditions: vasopressin 0.3 mU·kg^−1·min^−1 during dialysis; for Lowest SAP: p=0.02 vs placebo; for Symptomatic hypotensive episodes: one of eleven patients, p=0.001 vs placebo
# Description: All patients were studied at regularly scheduled dialysis sessions. Patients underwent conventional hemodialysis with hollow fiber high flux polysulfone dialyzers on volumetric dialysis machines (Cobe Centrysystem 3, Gambro Renal Care Products, Inc., Lakewood, Colo.). Dialysis times were 3.5–4.5 hours. Blood flow was 300–400 mL/min and dialysate was delivered at 600 mL/min. The dialysis bath contained potassium, 2 mEq/L; calcium, 2.5 mEq/L; magnesium, 0.75 mEq/L; and bicarbonate, 40 mEq/L. In those patients who were prescribed dialysate sodium modeling and/or reduced dialysate temperature (35–37° C.) prior to the study, the parameters of these interventions were held constant throughout the study. Ultrafiltration was performed at a constant rate based on the target weight loss for that dialysis session. Oscillometric blood pressure and heart rate measurements were taken at 15–30 minute intervals.
# Exclusion criteria for all studies were: 1) active vascular disease, including angina, claudication, transient ischemic events, ischemic colitis and Raynaud's disease, 2) a history of prolonged QT syndrome, 3) a history of orthostatic hypotension and 4) a systolic blood pressure greater than 200 mm Hg and/or a diastolic blood pressure greater than 100 mm Hg. Fluid was administered for pressor support at the discretion of the dialysis staff, blinded to the study drug, on the basis of hypotensive episodes during dialysis. Excess fluid removed was defined as the difference between the baseline prescription weight loss and the actual weight loss achieved during the study hemodialysis.
# Hemodialysis-induced fluid removal during vasopressin administration in hypertensive patients. 22 patients with ESRD on chronic hemodialysis and hypertension (defined by a systolic arterial pressure greater than 140 mm Hg or the requirement of anti-hypertensive medications to maintain a lower systolic arterial pressure) were studied. A randomized, controlled and double blinded trial compared the effect of vasopressin (0.3 mU·kg^−1·min^−1) or placebo (normal saline) on the capacity to tolerate a 0.5 kg increase in the target weight reduction specified by the standard dialysis prescription. Patients were studied only if their pre-dialysis weight was within ±1 kg. of the mean pre-dialysis weight of the previous three sessions.
# Otherwise the hemodialysis routine was unchanged and its management was left to the health care personnel performing the treatment, who where not involved in the study. The nurse administering the hemodialysis treatment managed hypotensive episodes per routine with administration of normal saline and/or a decrease in ultrafiltration rate. Symptomatic hypotension was identified by the nurse conducting the dialysis and criteria included a sudden drop in systolic arterial pressure associated with one or more of the following: lightheadedness, dizziness, cramping, nausea and vomiting.
# Statistical Analyses. Analyses were performed using Statistical Package for the Social Sciences, version 9. Changes in hemodynamic parameters within patients during each session and between sessions were analyzed by repeated measures of ANOVA. Analysis of continuous variables between treatment arms was performed using the Friedman (two-way) analysis of variance. All values are expressed as mean±SE unless otherwise stated. P values of less than […] (two-tailed) were considered statistically significant.
# Effect of vasopressin administration during increased hemodialysis-induced luid removal. […]
# normal subjects = assay: Systolic arterial pressure during AVP infusion in normal subjects (Example 1); conditions: for systolic arterial blood pressure: normals, n=12, M ± SD
# Description: as §1, §2, §3, §4
# [3] = system: ESRD patients during hemodialysis; assay: Similar study of fluid removal by hemodialysis with AVP vs placebo (FIG. 7); conditions: five patients on AVP (FIG. 7)
# Description: FIG. 7 depicts greater fluid removal by hemodialysis with AVP.
# [4] = system: ESRD patients during hemodialysis; assay: Fluids needed to maintain blood pressure and weight lost during hemodialysis with AVP, 5 patients (Example 1, FIG. 6)
# Description: as §1
# AVP Administration allows more fluid removal. […] Dialysis during the administration of AVP resulted both in a decreased in the amount of intravenous fluids needed to maintain blood pressure and in a greater decrease in weight.
# The amount of fluids to maintain blood pressure during dialysis and the weight decrease were as given below: […]
# [5] = system: ESRD patients during hemodialysis; assay: Systolic arterial pressure during hemodialysis with AVP infusion vs vehicle, twelve patients (Example 1); conditions: for systolic arterial pressure: dialysis with AVP infused, M ± SD
# Description: as §1, §2
# AVP administration results in a higher intra-dialysis blood pressure. To examine whether vasopressin could help in supporting blood pressure during dialysis, we dialyzed a group of ESRD patients during administration of vehicle or during administration of vasopressin at a dose without pressor effect in normal subjects.
# To determine the blood pressure effect of exogenous AVP during dialysis, two dialysis treatments were administered to twelve patients. In one, only the vehicle used to administer AVP was given while in the other treatment, AVP was infused. As shown, systolic arterial pressure decreased more than 10 mm Hg during the control dialysis while it decreased a maximum of 5 mm Hg during the dialysis in which AVP was infused.
# [6] = hemodialysis with AVP, individual patients 1-5
smiles,measurement,setting,value
"NC(=O)CC[C@@H]1NC(=O)[C@H](Cc2ccccc2)NC(=O)[C@H](Cc2ccc(O)cc2)NC(=O)[C@@H](N)CSSC[C@@H](C(=O)N2CCC[C@H]2C(=O)N[C@@H](CCCN=C(N)N)C(=O)NCC(N)=O)NC(=O)[C@H](CC(N)=O)NC1=O [AVP, 8-arginine vasopressin]",systolic arterial blood pressure,[1]; 30 minutes of AVP infusion,162 ± 30
same,systolic arterial blood pressure,[1]; 60 minutes of AVP infusion,161 ± 32
same,systolic arterial blood pressure,[1]; 90 minutes of AVP infusion,161 ± 28
same,systolic arterial blood pressure,[1]; 120 minutes of AVP infusion,150 ± 31
same,systolic arterial blood pressure,[1]; before infusion (baseline),153 ± 28
same,pressor action of AVP,"[1]; patients with end-stage renal disease, same dose as in normal subjects (FIG. 3B)",increases blood pressure; also recorded: increased systolic arterial blood pressure
same,Mean SAP during dialysis,"[2]; 11 patients, mean±SE",145 ± 6 mmHg
same,Lowest SAP,"[2]; 11 patients, mean±SE, listed as Vasopressin",130 ± 7 mmHg
same,Lowest SAP,"[2]; 11 patients, mean±SE, listed as vasopressin",130±7 mmHg
same,Maximum drop in SAP from mean,"[2]; 11 patients, mean±SE, p=0.03 vs placebo, listed as Vasopressin",17 ± 2 mmHg
same,Maximum drop in SAP from mean,"[2]; 11 patients, mean±SE, p=0.03 vs placebo, listed as vasopressin",17±2 mmHg
same,Symptomatic hypotensive episodes,[2]; listed as Vasopressin,9 ± 1%
same,Symptomatic hypotensive episodes,[2]; listed as vasopressin,9%
same,normal saline administered for pressure support,"[2]; p=0.03 vs placebo, FIG. 10A",40 ± 43 mL
same,volume of extra fluid removed during the dialysis above the baseline prescription,"[2]; p=0.045 vs. placebo, FIG. 10B",460 ± 100 mL
same,pressor action of AVP,"normal subjects; normal subjects, same dose as in ESRD patients (FIG. 3A)",no pressure action
same,systolic arterial blood pressure,normal subjects; 30 minutes of AVP infusion,114 ± 10
same,systolic arterial blood pressure,normal subjects; 60 minutes of AVP infusion,113 ± 10
same,systolic arterial blood pressure,normal subjects; 90 minutes of AVP infusion,114 ± 10
same,systolic arterial blood pressure,normal subjects; 120 minutes of AVP infusion,113 ± 11
same,systolic arterial blood pressure,normal subjects; before infusion (baseline),115 ± 13
same,blood pressure stability and extra fluid removal,[3],the blood pressure was stable and extra fluid removal was possible
same,blood pressure stability and extra fluid removal,[4]; all patients on AVP (FIG. 6),the blood pressure was stable and extra fluid removal was possible
same,Fluids given to maintain blood pressure during dialysis,[4]; [6],0 mL
same,Weight lost,[4]; [6],2.8 Kg and 1.8 Kg and 2.2 Kg (2×) and 3.0 Kg
same,decrease of systolic arterial pressure during dialysis,"[5]; dialysis in which AVP was infused, control dialysis decreased more than 10 mm Hg",≤ 5 mm Hg
same,systolic arterial pressure,[5]; 30 minutes of dialysis,153 ± 25 mm Hg
same,systolic arterial pressure,[5]; 60 minutes of dialysis,155 ± 29 mm Hg
same,systolic arterial pressure,[5]; 90 minutes of dialysis,149 ± 30 mm Hg
same,systolic arterial pressure,[5]; 120 minutes of dialysis,148 ± 30 mm Hg
same,systolic arterial pressure,[5]; 150 minutes of dialysis,149 ± 31 mm Hg
same,systolic arterial pressure,[5]; 180 minutes of dialysis,149 ± 30 mm Hg
same,systolic arterial pressure,"[5]; before dialysis, twelve patients",153 ± 28 mm Hg
